According to PMC9571063 (Molecules, 2022):

Columns and labels:
[1] = target: T1, YSK1 (Homo sapiens, UniProt O00506); assay: KINOMEscan; assay type: binding; details: read-out: Percent Control
T1 construct: purchased Eurofins (KINOMEscan, DiscoverX)

[2] = target: T2, PCTK2 (Homo sapiens, UniProt Q00537); assay: KINOMEscan; assay type: binding; details: read-out: Percent Control
T2 construct: purchased Eurofins DiscoverX KINOMEscan (scanMAX 468)

[3] = target: T3, CAMKK1 (Homo sapiens, UniProt Q8N5S9); assay: KINOMEscan; assay type: binding; details: read-out: Percent Control
T3 construct: purchased Eurofins DiscoverX KINOMEscan (scanMAX 468)

[4] = target: T4, NEK3 (Homo sapiens, UniProt P51956); assay: KINOMEscan; assay type: binding; details: read-out: Percent Control
T4 construct: purchased Eurofins DiscoverX KINOMEscan (scanMAX 468)

[5] = target: T5, AAK1 (Homo sapiens, UniProt Q2M2I8); assay: KINOMEscan; assay type: binding; details: read-out: Percent Control
T5 construct: purchased Eurofins DiscoverX KINOMEscan (scanMAX 468)

[6] = target: T6, PKN2 (Homo sapiens, UniProt Q16513); assay: KINOMEscan; assay type: binding; details: read-out: Percent Control
T6 construct: purchased Eurofins DiscoverX KINOMEscan (scanMAX 468)

[7] = target: T7, EGFR(L858R,T790M) (Homo sapiens, UniProt P00533, L858R/T790M); assay: KINOMEscan; assay type: binding; details: read-out: Percent Control
T7 construct: purchased Eurofins DiscoverX KINOMEscan (scanMAX 468)

[8] = target: T8, KIT(D816V) (Homo sapiens, UniProt P10721, D816V); assay: KINOMEscan; assay type: binding; details: read-out: Percent Control
T8 construct: purchased Eurofins DiscoverX KINOMEscan (scanMAX 468)

[9] = target: T9, SNRK (Homo sapiens, UniProt Q9NRH2); assay: KINOMEscan; assay type: binding; details: read-out: Percent Control
T9 construct: purchased Eurofins DiscoverX KINOMEscan (scanMAX 468)

[10] = target: T10, MYLK2 (Homo sapiens, UniProt Q9H1R3); assay: KINOMEscan; assay type: binding; details: read-out: Percent Control
T10 construct: purchased Eurofins DiscoverX KINOMEscan (scanMAX 468)

[11] = system: MCF7; set-up: method as in ref 14 (a number printed in a supplementary file, which may have a reference list of its own: not looked up in the article's list); details: DB18[a], footnote not given; read-out: Cytotoxic studies IC50 MCF7; cited from earlier work
[12] = target: T11, MARK2 (Homo sapiens, UniProt Q7KZI7); assay: KINOMEscan; assay type: binding; details: read-out: Percent Control
T11 construct: purchased Eurofins DiscoverX KINOMEscan (scanMAX 468)

[13] = target: T12, RSK2(Kin.Dom.2-C-terminal) (Homo sapiens, UniProt P51812); assay: KINOMEscan; assay type: binding; details: read-out: Percent Control
T12 construct: RSK2(Kin.Dom.2-C-terminal); purchased Eurofins DiscoverX KINOMEscan (scanMAX 468)

[14] = target: T13, DDR1 (Homo sapiens, UniProt Q08345); assay: KINOMEscan; assay type: binding; details: read-out: Percent Control
T13 construct: purchased Eurofins DiscoverX KINOMEscan (scanMAX 468)

[15] = target: T14, DLK (Homo sapiens, UniProt Q12852); assay: KINOMEscan; assay type: binding; details: read-out: Percent Control
T14 construct: purchased Eurofins DiscoverX KINOMEscan (scanMAX 468)

[16] = target: T15, ABL1(Q252H)-nonphosphorylated (Homo sapiens, UniProt P00519, Q252H); assay: KINOMEscan; assay type: binding; details: read-out: Percent Control
T15 construct: purchased Eurofins DiscoverX KINOMEscan (scanMAX 468)

[17] = target: T16, p38-beta (Homo sapiens, UniProt Q15759); assay: KINOMEscan; assay type: binding; details: read-out: Percent Control
T16 construct: purchased Eurofins DiscoverX KINOMEscan (scanMAX 468)

[18] = target: T17, AURKA (Homo sapiens, UniProt O14965); assay: KINOMEscan; assay type: binding; details: read-out: Percent Control
T17 construct: purchased Eurofins DiscoverX KINOMEscan (scanMAX 468)

[19] = target: T18, MET(Y1235D) (Homo sapiens, UniProt P08581, Y1235D); assay: KINOMEscan; assay type: binding; details: read-out: Percent Control
T18 construct: purchased Eurofins DiscoverX KINOMEscan (scanMAX 468)

[20] = target: T19, PIK3CA(E542K) (Homo sapiens, UniProt P42336, E542K); assay: KINOMEscan; assay type: binding; details: read-out: Percent Control
T19 construct: purchased Eurofins DiscoverX KINOMEscan (scanMAX 468)

[21] = target: T20, RAF1 (Homo sapiens, UniProt P04049); assay: KINOMEscan; assay type: binding; details: read-out: Percent Control
T20 construct: purchased Eurofins DiscoverX KINOMEscan (scanMAX 468)

[22] = target: T21, CDKL3 (Homo sapiens, UniProt Q8IVW4); assay: KINOMEscan; assay type: binding; details: read-out: Percent Control
T21 construct: purchased Eurofins DiscoverX KINOMEscan (scanMAX 468)

[23] = target: T22, TRKA (Homo sapiens, UniProt P04629); assay: KINOMEscan; assay type: binding; details: read-out: Percent Control
T22 construct: purchased Eurofins DiscoverX KINOMEscan (scanMAX 468)

[24] = target: T23, MAP4K2 (Homo sapiens, UniProt Q12851); assay: KINOMEscan; assay type: binding; details: read-out: Percent Control
T23 construct: purchased Eurofins DiscoverX KINOMEscan (scanMAX 468)

[25] = target: T24, BMPR1A (Homo sapiens, UniProt P36894); assay: KINOMEscan; assay type: binding; details: read-out: Percent Control
T24 construct: purchased Eurofins DiscoverX KINOMEscan (scanMAX 468)

[26] = target: T25, MINK (Homo sapiens, UniProt Q8N4C8); assay: KINOMEscan; assay type: binding; details: read-out: Percent Control
T25 construct: purchased Eurofins DiscoverX KINOMEscan (scanMAX 468)

[27] = target: T26, KIT(V559D,V654A) (Homo sapiens, UniProt P10721, V559D/V654A); assay: KINOMEscan; assay type: binding; details: read-out: Percent Control
T26 construct: purchased Eurofins DiscoverX KINOMEscan (scanMAX 468)

[28] = target: T27, AKT3 (Homo sapiens, UniProt Q9Y243); assay: KINOMEscan; assay type: binding; details: read-out: Percent Control
T27 construct: purchased Eurofins DiscoverX KINOMEscan (scanMAX 468)

[29] = target: T28, MST3 (Homo sapiens, UniProt Q9Y6E0); assay: KINOMEscan; assay type: binding; details: read-out: Percent Control
T28 construct: purchased Eurofins DiscoverX KINOMEscan (scanMAX 468)

[30] = target: T29, MUSK (Homo sapiens, UniProt O15146); assay: KINOMEscan; assay type: binding; details: read-out: Percent Control
T29 construct: purchased Eurofins DiscoverX KINOMEscan (scanMAX 468)

[31] = target: T30, CDK4 (Homo sapiens, UniProt P11802); assay: KINOMEscan; assay type: binding; details: read-out: Percent Control
T30 construct: purchased Eurofins DiscoverX KINOMEscan (scanMAX 468)

[32] = target: T31, LOK (Homo sapiens, UniProt O94804); assay: KINOMEscan; assay type: binding; details: read-out: Percent Control
T31 construct: purchased Eurofins DiscoverX KINOMEscan (scanMAX 468)

[33] = target: T32, RSK1(Kin.Dom.1-N-terminal) (Homo sapiens, UniProt Q15418); assay: KINOMEscan; assay type: binding; details: read-out: Percent Control
T32 construct: RSK1(Kin.Dom.1-N-terminal); purchased Eurofins DiscoverX KINOMEscan (scanMAX 468)

[34] = target: T33, CDC2L1 (Homo sapiens, UniProt P21127); assay: KINOMEscan; assay type: binding; details: read-out: Percent Control
T33 construct: purchased Eurofins DiscoverX KINOMEscan (scanMAX 468)

[35] = target: T34, EPHB3 (Homo sapiens, UniProt P54753); assay: KINOMEscan; assay type: binding; details: read-out: Percent Control
T34 construct: purchased Eurofins DiscoverX KINOMEscan (scanMAX 468)

[36] = target: T35, LIMK2 (Homo sapiens, UniProt P53671); assay: KINOMEscan; assay type: binding; details: read-out: Percent Control
T35 construct: purchased Eurofins DiscoverX KINOMEscan (scanMAX 468)

[37] = target: T36, EGFR(L747-S752del, P753S) (Homo sapiens, UniProt P00533, DEL747-752/P753S); assay: KINOMEscan; assay type: binding; details: read-out: Percent Control
T36 construct: purchased Eurofins DiscoverX KINOMEscan (scanMAX 468)

[38] = target: T37, EGFR (Homo sapiens, UniProt P00533); assay: KINOMEscan; assay type: binding; details: read-out: Percent Control
T37 construct: purchased Eurofins DiscoverX KINOMEscan (scanMAX 468)

[39] = target: T38, TAK1 (Homo sapiens, UniProt O43318); assay: KINOMEscan; assay type: binding; details: read-out: Percent Control
T38 construct: purchased Eurofins DiscoverX KINOMEscan (scanMAX 468)

[40] = target: T39, TXK (Homo sapiens, UniProt P42681); assay: KINOMEscan; assay type: binding; details: read-out: Percent Control
T39 construct: purchased Eurofins DiscoverX KINOMEscan (scanMAX 468)

T9 sequence (Q9NRH2 whole entry): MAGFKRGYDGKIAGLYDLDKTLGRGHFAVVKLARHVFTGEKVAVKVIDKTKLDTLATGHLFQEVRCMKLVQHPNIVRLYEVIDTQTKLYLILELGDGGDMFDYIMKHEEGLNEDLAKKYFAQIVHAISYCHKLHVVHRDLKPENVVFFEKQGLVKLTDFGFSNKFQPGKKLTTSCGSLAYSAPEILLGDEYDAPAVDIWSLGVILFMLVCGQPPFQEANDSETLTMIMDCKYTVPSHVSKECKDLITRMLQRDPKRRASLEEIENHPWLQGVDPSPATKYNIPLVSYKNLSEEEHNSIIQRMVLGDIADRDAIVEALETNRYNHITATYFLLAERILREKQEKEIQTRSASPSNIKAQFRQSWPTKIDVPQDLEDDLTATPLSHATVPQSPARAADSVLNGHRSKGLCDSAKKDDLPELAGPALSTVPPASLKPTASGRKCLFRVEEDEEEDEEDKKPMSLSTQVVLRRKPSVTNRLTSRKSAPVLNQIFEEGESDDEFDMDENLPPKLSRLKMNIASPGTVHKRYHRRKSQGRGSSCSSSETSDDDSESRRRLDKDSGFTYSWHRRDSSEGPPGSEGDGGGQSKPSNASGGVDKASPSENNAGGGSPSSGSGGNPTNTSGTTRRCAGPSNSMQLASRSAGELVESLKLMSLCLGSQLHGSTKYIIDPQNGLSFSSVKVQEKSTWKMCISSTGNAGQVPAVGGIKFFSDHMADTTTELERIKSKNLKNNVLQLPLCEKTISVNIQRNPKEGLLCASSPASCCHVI
T10 sequence (Q9H1R3 whole entry): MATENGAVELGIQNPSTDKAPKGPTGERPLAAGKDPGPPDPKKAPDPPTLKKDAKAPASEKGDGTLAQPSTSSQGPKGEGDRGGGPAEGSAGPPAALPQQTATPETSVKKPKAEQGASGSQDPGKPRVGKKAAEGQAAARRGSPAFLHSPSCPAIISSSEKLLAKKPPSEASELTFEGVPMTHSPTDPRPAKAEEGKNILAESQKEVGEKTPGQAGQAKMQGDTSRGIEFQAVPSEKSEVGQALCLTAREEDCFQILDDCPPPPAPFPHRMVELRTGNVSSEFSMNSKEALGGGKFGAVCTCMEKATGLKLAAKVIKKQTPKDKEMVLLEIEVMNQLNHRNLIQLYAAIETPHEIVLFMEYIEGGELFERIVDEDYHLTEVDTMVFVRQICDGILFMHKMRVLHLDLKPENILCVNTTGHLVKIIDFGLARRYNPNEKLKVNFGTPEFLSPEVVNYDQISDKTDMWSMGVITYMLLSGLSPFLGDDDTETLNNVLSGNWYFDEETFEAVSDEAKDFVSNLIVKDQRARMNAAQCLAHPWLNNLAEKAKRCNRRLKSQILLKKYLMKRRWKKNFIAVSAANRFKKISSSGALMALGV
T24 sequence (P36894 24-532): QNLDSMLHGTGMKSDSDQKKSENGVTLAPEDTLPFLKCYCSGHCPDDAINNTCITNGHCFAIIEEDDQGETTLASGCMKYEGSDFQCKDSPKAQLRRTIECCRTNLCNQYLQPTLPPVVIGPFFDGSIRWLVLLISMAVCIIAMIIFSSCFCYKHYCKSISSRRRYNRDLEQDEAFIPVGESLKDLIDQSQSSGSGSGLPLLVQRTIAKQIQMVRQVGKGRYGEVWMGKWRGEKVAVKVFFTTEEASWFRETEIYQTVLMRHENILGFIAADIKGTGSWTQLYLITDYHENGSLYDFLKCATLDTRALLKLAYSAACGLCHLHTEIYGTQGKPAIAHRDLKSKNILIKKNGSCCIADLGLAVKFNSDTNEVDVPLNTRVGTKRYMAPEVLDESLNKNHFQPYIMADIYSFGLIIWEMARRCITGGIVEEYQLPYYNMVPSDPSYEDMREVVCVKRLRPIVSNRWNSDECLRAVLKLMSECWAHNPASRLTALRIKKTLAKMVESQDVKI
T18 sequence (P08581 25-1390 Y1235D): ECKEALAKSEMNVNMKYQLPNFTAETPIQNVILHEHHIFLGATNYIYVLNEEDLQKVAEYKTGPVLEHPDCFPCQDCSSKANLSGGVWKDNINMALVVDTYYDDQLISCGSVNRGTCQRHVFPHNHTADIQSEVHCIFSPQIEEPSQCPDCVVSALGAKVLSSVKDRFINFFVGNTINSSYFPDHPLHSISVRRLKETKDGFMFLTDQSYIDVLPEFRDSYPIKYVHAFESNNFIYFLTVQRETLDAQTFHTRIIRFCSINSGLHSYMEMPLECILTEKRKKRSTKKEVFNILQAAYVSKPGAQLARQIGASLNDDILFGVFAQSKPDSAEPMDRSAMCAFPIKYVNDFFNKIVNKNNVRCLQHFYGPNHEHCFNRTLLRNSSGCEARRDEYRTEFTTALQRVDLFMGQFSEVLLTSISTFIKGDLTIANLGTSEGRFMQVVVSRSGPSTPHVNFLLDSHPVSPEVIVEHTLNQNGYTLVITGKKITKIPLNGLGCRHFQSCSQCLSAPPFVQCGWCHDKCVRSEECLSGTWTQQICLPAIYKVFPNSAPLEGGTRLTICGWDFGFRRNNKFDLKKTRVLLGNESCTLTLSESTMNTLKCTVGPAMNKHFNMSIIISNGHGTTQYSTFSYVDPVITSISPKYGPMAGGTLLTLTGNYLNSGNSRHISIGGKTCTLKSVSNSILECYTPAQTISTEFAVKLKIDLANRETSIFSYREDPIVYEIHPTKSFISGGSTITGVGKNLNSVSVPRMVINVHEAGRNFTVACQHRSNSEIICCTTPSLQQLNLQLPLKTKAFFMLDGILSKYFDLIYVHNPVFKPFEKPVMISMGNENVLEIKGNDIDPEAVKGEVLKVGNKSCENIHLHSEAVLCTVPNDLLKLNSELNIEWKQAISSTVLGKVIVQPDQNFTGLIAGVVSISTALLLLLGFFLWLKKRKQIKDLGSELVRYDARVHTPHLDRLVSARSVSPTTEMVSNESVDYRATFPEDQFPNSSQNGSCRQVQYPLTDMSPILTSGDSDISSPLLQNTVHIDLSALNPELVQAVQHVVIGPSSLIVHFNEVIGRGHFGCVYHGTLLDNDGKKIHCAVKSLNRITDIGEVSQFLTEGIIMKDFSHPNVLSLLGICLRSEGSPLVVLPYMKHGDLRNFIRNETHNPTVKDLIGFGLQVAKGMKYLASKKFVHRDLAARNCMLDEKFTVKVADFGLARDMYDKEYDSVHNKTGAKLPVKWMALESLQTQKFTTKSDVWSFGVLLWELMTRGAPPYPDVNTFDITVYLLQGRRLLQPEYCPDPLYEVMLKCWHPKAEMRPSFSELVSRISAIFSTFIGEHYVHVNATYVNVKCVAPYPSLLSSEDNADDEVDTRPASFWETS
T37 sequence (P00533 25-1210): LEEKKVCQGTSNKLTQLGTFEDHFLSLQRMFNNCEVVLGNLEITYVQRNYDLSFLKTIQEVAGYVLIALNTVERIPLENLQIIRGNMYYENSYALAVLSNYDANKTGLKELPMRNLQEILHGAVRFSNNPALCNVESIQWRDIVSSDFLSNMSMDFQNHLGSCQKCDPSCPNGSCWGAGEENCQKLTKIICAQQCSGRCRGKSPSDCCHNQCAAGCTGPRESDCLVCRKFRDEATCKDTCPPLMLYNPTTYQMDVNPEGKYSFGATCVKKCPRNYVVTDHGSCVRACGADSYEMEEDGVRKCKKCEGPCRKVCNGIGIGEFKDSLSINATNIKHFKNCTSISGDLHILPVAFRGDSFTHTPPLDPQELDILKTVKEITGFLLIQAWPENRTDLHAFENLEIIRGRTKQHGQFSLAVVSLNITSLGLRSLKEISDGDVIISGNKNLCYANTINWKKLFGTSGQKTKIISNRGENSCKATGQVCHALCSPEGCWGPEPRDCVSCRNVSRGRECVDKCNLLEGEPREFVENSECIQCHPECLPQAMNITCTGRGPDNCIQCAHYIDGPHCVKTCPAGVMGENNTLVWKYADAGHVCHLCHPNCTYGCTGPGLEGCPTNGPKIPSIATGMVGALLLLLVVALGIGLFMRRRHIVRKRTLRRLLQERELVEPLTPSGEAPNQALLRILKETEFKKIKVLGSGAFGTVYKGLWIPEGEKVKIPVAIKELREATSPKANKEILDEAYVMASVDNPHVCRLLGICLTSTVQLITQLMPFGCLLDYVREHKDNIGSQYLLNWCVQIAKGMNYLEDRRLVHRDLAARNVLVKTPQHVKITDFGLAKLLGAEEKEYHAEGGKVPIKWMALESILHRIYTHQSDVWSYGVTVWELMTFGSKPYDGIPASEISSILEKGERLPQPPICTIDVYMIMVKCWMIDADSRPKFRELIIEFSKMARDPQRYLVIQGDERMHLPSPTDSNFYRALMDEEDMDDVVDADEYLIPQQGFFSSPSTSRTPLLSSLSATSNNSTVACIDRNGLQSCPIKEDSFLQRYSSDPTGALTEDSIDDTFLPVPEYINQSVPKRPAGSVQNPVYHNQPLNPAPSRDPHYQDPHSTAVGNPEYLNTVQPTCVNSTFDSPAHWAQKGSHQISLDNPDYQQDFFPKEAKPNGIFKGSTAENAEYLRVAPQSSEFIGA
T20 sequence (P04049 whole entry): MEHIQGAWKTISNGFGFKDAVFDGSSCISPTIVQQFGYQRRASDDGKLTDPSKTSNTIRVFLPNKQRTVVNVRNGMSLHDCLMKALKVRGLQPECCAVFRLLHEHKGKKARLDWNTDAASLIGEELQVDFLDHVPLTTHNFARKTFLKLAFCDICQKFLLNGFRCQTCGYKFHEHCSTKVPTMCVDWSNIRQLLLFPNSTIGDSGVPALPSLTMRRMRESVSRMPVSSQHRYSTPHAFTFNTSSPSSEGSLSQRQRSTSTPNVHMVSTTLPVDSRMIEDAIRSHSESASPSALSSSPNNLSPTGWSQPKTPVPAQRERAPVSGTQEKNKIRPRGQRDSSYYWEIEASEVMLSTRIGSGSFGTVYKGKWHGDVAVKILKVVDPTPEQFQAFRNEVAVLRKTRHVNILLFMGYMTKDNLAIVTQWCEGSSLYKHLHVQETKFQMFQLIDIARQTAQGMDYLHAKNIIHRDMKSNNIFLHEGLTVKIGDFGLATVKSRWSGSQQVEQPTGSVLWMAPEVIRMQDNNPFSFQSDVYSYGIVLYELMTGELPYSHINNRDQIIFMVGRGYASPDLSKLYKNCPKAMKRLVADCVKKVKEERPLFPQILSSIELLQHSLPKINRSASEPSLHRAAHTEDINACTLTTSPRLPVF

Question: What does the source list for `Cc1ccc(-n2cc(COc3cccc4cnc(Nc5cccc(Cl)c5)nc34)nn2)c([N+](=O)[O-])c1` [DB18]?
Answer: remaining binding at 1 µM [1]: 98%; remaining binding at 1 µM [2]: 98%; remaining binding at 1 µM [3]: 100%; remaining binding at 1 µM [4]: 83%; remaining binding at 1 µM [5]: 100%; remaining binding at 1 µM [6]: 100%; remaining binding at 1 µM [7]: 100%; remaining binding at 1 µM [8]: 100%; remaining binding at 1 µM [9]: 100%; remaining binding at 1 µM [10]: 100%; IC50 [11]: 4 µM; remaining binding at 1 µM [12]: 94%; remaining binding at 1 µM [13]: 100%; remaining binding at 1 µM [14]: 100%; remaining binding at 1 µM [15]: 100%; remaining binding at 1 µM [16]: 88%; remaining binding at 1 µM [17]: 100%; remaining binding at 1 µM [18]: 100%; remaining binding at 1 µM [19]: 100%; remaining binding at 1 µM [20]: 80%; remaining binding at 1 µM [21]: 100%; remaining binding at 1 µM [22]: 94%; remaining binding at 1 µM [23]: 8.9%; remaining binding at 1 µM [24]: 100%; remaining binding at 1 µM [25]: 68%; remaining binding at 1 µM [26]: 95%; remaining binding at 1 µM [27]: 100%; remaining binding at 1 µM [28]: 100%; remaining binding at 1 µM [29]: 100%; remaining binding at 1 µM [30]: 100%; remaining binding at 1 µM [31]: 100%; remaining binding at 1 µM [32]: 100%; remaining binding at 1 µM [33]: 98%; remaining binding at 1 µM [34]: 100%; remaining binding at 1 µM [35]: 100%; remaining binding at 1 µM [36]: 100%; remaining binding at 1 µM [37]: 83%; remaining binding at 1 µM [38]: 97%; remaining binding at 1 µM [39]: 100%; remaining binding at 1 µM [40]: 96%
